Source: patent publication US7078400B2, “20-HETE synthase inhibitor” (Taisho Pharmaceutical Co., Ltd., priority 1999, dated 2006)

What was measured:
[1] = system: 20-HETE synthase originated from rat kidney microsome; experiment: Inhibitory effect of 20-HETE synthase originated from rat kidney microsome; assay type: biochemical; settings: for Inhibition rate (1 μM): 1 μM of the subject compound, 20-HETE production without compound set to 100%; for IC50: concentration at which production of 20-HETE was inhibited to 50%
How it was run: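 Kidney microsomes from 6-week male spontaneously hypertensive rats were used with tritium-arachidonic acid and NADPH. 20-HETE was quantified by radio-HPLC on a C18 column.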

Compound | Inhibition rate (1 μM) [1] | IC50 [1] | melting point
O/N=C/Nc1ccc(OCCc2cccs2)cc1 [Comp. 422] | 121.6 | 1.5 nM | 132 to 134 °C
O/N=C/Nc1ccc(OCCc2ccsc2)cc1 [Comp. 423] | 118.4 | 2.2 nM | 132 to 134.5 °C
CCOC(=O)CCCCCOc1ccc(N/C=N/O)cc1 [Comp. 424] | – | 1.5 nM | 102 to 103.5 °C
O=C([O-])CCCCCOc1ccc(N/C=N/O)cc1.[Na+] [Comp. 425] | – | 3 nM | > 300 °C
CC(=O)OCCCCCOc1ccc(N/C=N/O)cc1 [Comp. 426] | – | 5.1 nM | 101.5 to 104 °C
O/N=C/Nc1ccc(OCCCN2CCCCC2)cc1 [Comp. 428] | – | 51.5 nM | 143.5 to 144.5 °C
N#CCCCOc1ccc(N/C=N/O)cc1 [Comp. 430] | – | 7.4 nM | 139.5 to 141 °C
O/N=C/Nc1ccc(OCCCCCN2CCCCC2)cc1 [Comp. 431] | – | 47.7 nM | 113 to 115 °C
O/N=C/Nc1ccc(OCCCCCN2CCCC2)cc1 [Comp. 432] | – | 19.5 nM | 116.5 to 117.5 °C
CCOC(=O)CCCCOc1ccc(N/C=N/O)cc1 [Comp. 433] | – | 1.5 nM | 125 to 127 °C
O=C([O-])CCCCOc1ccc(N/C=N/O)cc1.[Na+] [Comp. 434] | – | 3.2 nM | > 300 °C
CC(=O)OCC(COc1ccc(N/C=N/O)cc1)OC(C)=O (centres unmarked) [Comp. 435] | – | 2.2 nM | 133 to 134.5 °C
OCC(O)COc1ccc(N/C=N/O)cc1 (centres unmarked) [Comp. 436] | – | 79.2 nM | 140.5 to 141 °C
CC(C)Sc1ccc(N/C=N/O)cc1 [Comp. 439] | 92.3 | 2.9 nM | 144.1 to 144.2 °C
O/N=C/Nc1ccc(SCc2ccccc2)cc1 [Comp. 441, N-[4-(benzylthio)phenyl]-N′-hydroxyformamidine] | 94.2 | – | 166 °C
OCCSc1ccc(N/C=N/O)cc1 [Comp. 444] | 100.7 | 12.1 nM | 121 °C
CN(C)CCSc1ccc(N/C=N/O)cc1 [Comp. 445] | 95.1 | – | 112 °C
O/N=C/Nc1ccc(SCc2ccco2)cc1 [Comp. 448] | 109.8 | 1.9 nM | 125 to 126.5 °C
CCC(C)Sc1ccc(N/C=N/O)cc1 (centres unmarked) [Comp. 449] | 105.1 | 1.8 nM | 119 to 120.5 °C
CC(C)(C)Sc1ccc(N/C=N/O)cc1 [Comp. 456] | 94.4 | 6.3 nM | 143 to 145 °C
OCCCSc1ccc(N/C=N/O)cc1 [Comp. 459] | 119.0 | 2.4 nM | 108 to 108.5 °C
